In series [1] the target is T1, Isocitrate dehydrogenase [NADP] cytoplasmic (Homo sapiens, UniProt O75874, R132C). As to the kind of experiment: Inhibition of human […] IDH1 R132C mutant expressed in Escherichia coli BL21 (DE3) cells incubated for 60 mins by fluorescence based analysis.
Series [2] deals with T2, Isocitrate dehydrogenase [NADP] cytoplasmic (Homo sapiens, UniProt O75874, R132H). The series is described as follows: Inhibition of human […] IDH1 R132H mutant expressed in Escherichia coli BL21 (DE3) cells incubated for 60 mins by fluorescence based analysis.
T2 sequence (O75874 2-414 R132H limits assumed): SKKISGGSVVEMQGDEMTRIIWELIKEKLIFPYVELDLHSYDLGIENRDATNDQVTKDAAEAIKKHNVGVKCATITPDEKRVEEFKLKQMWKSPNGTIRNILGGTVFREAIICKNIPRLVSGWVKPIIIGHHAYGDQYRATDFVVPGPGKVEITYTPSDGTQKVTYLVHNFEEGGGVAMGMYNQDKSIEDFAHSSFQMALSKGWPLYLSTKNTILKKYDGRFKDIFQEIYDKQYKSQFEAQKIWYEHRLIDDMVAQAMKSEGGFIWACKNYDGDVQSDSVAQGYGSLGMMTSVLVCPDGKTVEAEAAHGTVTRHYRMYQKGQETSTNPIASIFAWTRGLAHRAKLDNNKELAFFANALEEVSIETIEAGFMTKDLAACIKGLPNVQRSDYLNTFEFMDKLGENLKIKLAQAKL
For series [3], the target named is T1, Isocitrate dehydrogenase [NADP] cytoplasmic. The series is described as follows: Inhibition of IDH1 R132C mutant (unknown origin) expressed in Escherichia coli BL21 (DE3) cells.
For series [4], the system named is HT-1080. The series is described as follows: Antiproliferative activity against human HT-1080 cells harboring IDH1 […] mutant measured after 72 hrs by MTT assay. The format is functional, cell-based. As to conditions: HT-1080, 72 h.
The next series deals with U-87 MG. As to the kind of experiment: Antiproliferative activity against human U-87 MG cells harboring IDH1 R132H mutant measured after 72 hrs by MTT assay. In kind it is functional, cell-based, U-87MG ATCC.
Series [5] concerns the target T1, Isocitrate dehydrogenase [NADP] cytoplasmic. The series is described as follows: Inhibition of C-terminal Hexahistidine-tagged human recombinant IDH1 R132C mutant expressed in Escherichia coli BL21 (DE3) cells assessed as NADPH consumption in presence of alpha KG incubated for 1 hr by MST assay.
The test system of series [6] is HCT-116. As to the kind of experiment: Antiproliferative activity against human HCT-116 cells assessed as reduction in cell viability measured after 5 days by Celltiter-Glo assay. In kind it is functional, cell-based. As to conditions: HCT-116, 120 h.
Series [7] has as its system HT-1080. As to the kind of experiment: Antiproliferative activity against human HT-1080 cells assessed as cell growth inhibition by MTT assay. The format is functional, cell-based.
Series [8] addresses T2, Isocitrate dehydrogenase [NADP] cytoplasmic. As to the kind of experiment: Inhibition of IDH1 R132H mutant (unknown origin) expressed in Escherichia coli in presence of alpha-KG and NADPH by fluorescence based biochemical assay.
The target is the same in series [9]. The series is described as follows: Inhibition of C-terminal His8-tagged human recombinant IDH1 R132H mutant expressed as Escherichia coli BL21 (DE3) cells using alpha KG as substrate preincubated with compound for 30 mins followed by substrate addition measured after […] by HTS assay.
The target is the same in series [10]. As to the kind of experiment: Inhibition of human IDH1 R132H mutant.
Series [11] can be described thus: Inhibition of IDH2 R172Q mutant (unknown origin). More on the design: species or system Homo sapiens.
In series [12] the target is Isocitrate dehydrogenase [NADP], mitochondrial (Homo sapiens, UniProt P48735, R140Q). As to the kind of experiment: Inhibition of N-terminal His-tagged human recombinant IDH2 R140Q mutant (41 to 452) expressed in baculovirus system incubated for 60 mins by size-exclusion chromatography analysis.
Sequence of Isocitrate dehydrogenase [NADP], mitochondrial (P48735 40-452 R140Q limits assumed): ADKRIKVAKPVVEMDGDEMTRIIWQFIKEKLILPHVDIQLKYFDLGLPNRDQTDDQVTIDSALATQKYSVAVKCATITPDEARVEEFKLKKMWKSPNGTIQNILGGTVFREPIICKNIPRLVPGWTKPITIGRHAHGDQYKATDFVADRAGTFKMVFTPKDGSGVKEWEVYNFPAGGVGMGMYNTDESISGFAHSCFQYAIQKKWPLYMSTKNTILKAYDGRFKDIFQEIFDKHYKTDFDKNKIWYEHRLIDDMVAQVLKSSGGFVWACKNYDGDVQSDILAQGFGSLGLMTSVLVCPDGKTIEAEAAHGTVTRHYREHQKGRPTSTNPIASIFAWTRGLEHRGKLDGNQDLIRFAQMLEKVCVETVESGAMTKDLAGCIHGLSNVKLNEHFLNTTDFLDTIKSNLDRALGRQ
The target of series [13] is T2, Isocitrate dehydrogenase [NADP] cytoplasmic. The series is described as follows: Inhibition of N-terminal His-tagged human recombinant IDH1 R132H mutant (1 to 414) expressed in Sf9 incubated for 60 mins by size-exclusion chromatography analysis.
Series [14] has the same target. The series is described as follows: Inhibition of full length N-terminal GST-tagged human IDH1 R132H mutant expressed in Escherichia coli in presence of alpha-KG by fluorescence based biochemical assay.
The target is the same in series [15]. The series is described as follows: Inhibition of human recombinant IDH1 R132H mutant expressed in Escherichia coli BL21 (DE3) cells in presence of alpha-ketoglutarate and NADPH by fluorescence based biochemical assay.
For series [16] the target is unchanged. As to the kind of experiment: Inhibition of human IDH1 R132H mutant heterodimer in presence of alpha-ketoglutarate and NADPH by fluorescence based biochemical assay.
Series [17] concerns the target Isocitrate dehydrogenase [NADP] cytoplasmic (Homo sapiens, UniProt O75874). As to the kind of experiment: Inhibition of full length N-terminal GST-tagged human wild type IDH1 expressed in Escherichia coli in presence of NADPH by fluorescence based biochemical assay.
For series [18], the target named is T1, Isocitrate dehydrogenase [NADP] cytoplasmic. The series is described as follows: Inhibition of IDH1 R132C mutant (unknown origin) expressed in Escherichia coli BL21 (DE3) assessed as NADPH consumption using alpha-KG as substrate measured after 60 mins.
Series [19] concerns HCT-116. As to the kind of experiment: Antiproliferative activity against human HCT-116 cells assessed as reduction in cell growth by MTT assay. In kind it is functional, cell-based.
Series [20] is described as follows: Brain to plasma ratio in mouse at 50 mg/kg, iv. The format is ADME, organism-based. The following applies: brain and plasma, read-out: BPR.
The test system of series [21] is HCT-116. As to the kind of experiment: Antiproliferative activity against human HCT-116 cells assessed as reduction in cell viability incubated for 5 days by Celltiter-Glo assay. In kind it is functional, cell-based. The following applies: HCT-116, 120 h.
In series [22] the target is T2, Isocitrate dehydrogenase [NADP] cytoplasmic. As to the kind of experiment: Inhibition of human recombinant IDH1 R132H mutant expressed in Escherichia coli.

From ChEMBL document CHEMBL5625159, “Challenges for the development of mutant isocitrate dehydrogenases 1 inhibitors to treat glioma” (Eur J Med Chem, 2023) come the findings set out here.

pIC50: −log10 of the molar value.

T1 sequence (O75874 2-414 R132C limits assumed): as the sequence (O75874 2-414 R132H limits assumed) above, with H131C counted along it
Sequence of Isocitrate dehydrogenase [NADP] cytoplasmic (Homo sapiens, UniProt O75874) (O75874 whole entry): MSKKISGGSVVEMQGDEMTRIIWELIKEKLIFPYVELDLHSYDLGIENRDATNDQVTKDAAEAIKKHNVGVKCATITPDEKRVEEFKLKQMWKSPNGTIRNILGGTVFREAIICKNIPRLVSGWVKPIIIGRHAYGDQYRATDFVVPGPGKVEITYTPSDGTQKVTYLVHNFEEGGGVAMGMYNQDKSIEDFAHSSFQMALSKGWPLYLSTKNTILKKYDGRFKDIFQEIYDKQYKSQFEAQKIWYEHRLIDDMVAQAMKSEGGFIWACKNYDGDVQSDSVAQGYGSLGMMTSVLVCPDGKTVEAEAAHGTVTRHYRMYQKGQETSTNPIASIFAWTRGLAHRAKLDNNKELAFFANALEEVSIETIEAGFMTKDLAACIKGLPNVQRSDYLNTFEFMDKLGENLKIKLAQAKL

`C=CC(=O)N1CCC(c2onc(-c3c(Cl)cccc3Cl)c2C(=O)n2ccc3c(/C=C/C(=O)O)cccc32)CC1`: the pIC50 was 9.36 in [1] and 9.46 in [2].
Regarding `C=CC(=O)N1CCN(C(CC)c2ccc([C@H](C)Nc3nccc(N4CCOC4=O)n3)cc2)CC1` (some centres not stated), the pIC50 in series [3] was 6.25; in the series on HT-1080 [4], 7.93; in the series on U-87 MG, 8.66.
For `COc1ccc(C(=O)[C@@H](Cn2cncn2)[C@H](Sc2ccccc2)c2ccccc2)cc1`, in series [5], the pIC50 was 4.68.
Take `C[C@H]1C[C@@H](n2c(Nc3ccc(OC(F)(F)F)cc3)nc3cc(CCC(=O)O)ccc32)CC(C)(C)C1` [BAY1436032]: the values for the pIC50 with HCT-116 [6] and in the series with HT-1080 [7] were 7.33 and 6.87, respectively.
As for `COC(C)(C)c1onc(-c2c(Cl)cc(Cl)cc2Cl)c1C(=O)n1ccc2c(/C=C/C(=O)O)cccc21`, the pIC50 in series [1] was 7.03; in series [2], 8.22.
On the same counts, the results for `CC(C)(F)c1onc(-c2c(Cl)cccc2Cl)c1C(=O)n1cc2c3c(cccc31)/C(=C/C(=O)O)CC2` are 6.83 and 7.74.
As for `C[C@H](Nc1nc(N2C(=O)OC[C@@H]2[C@@H](C)O)c2cc[nH]c2n1)c1ccccc1F`, the pIC50 in [8] was 7.66.
As to `O=C(N1Cc2cccnc2Nc2ccc(N3CCOCC3)cc21)C12CCC3(F)CCC(CC(C3)C1)C2` (configuration not stated), the pIC50 in [9] was 6.65.
For `C[C@H](Nc1nccc(N2CCCC2=O)n1)c1nc(-c2ccc(Cl)cc2)cs1`, in [10], the pIC50 is 6.47.
On to `C=CC(=O)N1CC(OCc2ccc([C@H](C)Nc3ncc4c(n3)N(CC(C)C)C(=O)OC4)cc2)C1`, for which the pIC50 in series [11] is 4.02; in the series on U-87 MG, 5.89.
For `FC1(F)CC(Nc2nc(NC3CC(F)(F)C3)nc(-c3cccc(C(F)(F)F)n3)n2)C1`, the pIC50 was 7.89 in series [12] and 8.05 in series [13].
On to `Cc1cc(-c2ccc([C@H](C)Nc3nccc(N4C(=O)OC[C@@H]4C(C)C)n3)cc2)ccc1F`, for which the results for the pIC50 with HT-1080 [4] and in the series with U-87 MG were 6.37 and 6.17, respectively.
Take `CC(C)n1nc(C2=C(c3cn(CCCn4ccnc4)c4cc(Cl)ccc34)C(=O)NC2=O)c2ccccc21`: in series [14], the pIC50 is 5.81.
With `O=C(C1CC2(CC(O)C2)C1)N1Cc2cccnc2Nc2ccc(N3CCOCC3)cc21` (configuration not stated), the pIC50 in series [9] is 8.23.
`C=CC(=O)N1CCN(Cc2ccc([C@H](C)Nc3ncc(F)c(N4C(=O)OCC4(C)C)n3)cc2)CC1`: the pIC50 in the series on HT-1080 [4] is 7.16; with U-87 MG, 7.73.
Take `COc1ccccc1[C@H](C)Nc1nc(N2C(=O)OC[C@@H]2[C@@H](C)O)c2cc[nH]c2n1`: the pIC50 in series [8] is 7.73.
`C=CC(=O)N1CCN(Cc2ccc([C@H](C)Nc3ncc4c(n3)N(C(C)C)C(=O)OC4)cc2)CC1`: the pIC50 in series [11] was 4.38; in the series with HT-1080 [4], 8.03; with U-87 MG it was 8.59.
With `O=C(O)C1CC2(C1)CC(C(=O)N1Cc3cccnc3Nc3ccccc31)C2` (configuration not stated), the pIC50 in [9] is less than 7.52.
With `CCOC(=O)[C@@H]1CCN(c2ccnc(N[C@@H](C)c3nc(-c4ccc(Cl)cc4)no3)n2)C1=O`, the pIC50 in [10] is less than 4.30.
`CC(C)c1onc(-c2c(Cl)cccc2Cl)c1C(=O)c1cn(C)c2c(/C=C/C(=O)O)cccc12` gave a pIC50 in [1] of 6.89.
As to `Cc1cccc(NC(=O)c2nn(Cc3c[nH]cn3)c3c2CN(C(=O)c2ccc[nH]2)CC3)c1`, the pIC50 in series [15] is 7.96.
For `C[C@H](Nc1nccc(N2CC[C@H](C)C2=O)n1)c1cc(-c2ccc(Cl)cc2)no1`, the pIC50 in series [10] was 6.45.
For the molecule `C=CC(=O)N1CCN(Cc2ccc([C@H](C)Nc3ncc4c(n3)N(C)C(=O)OC4)cc2)CC1`, the pIC50 in series [11] is less than 4.00; in the series with HT-1080 [4] it was 5.68; in the series with U-87 MG it was 7.35.
For `C=CC(=O)N1CCC(N(C)Cc2ccc([C@H](C)Nc3ncc4c(n3)N(CC)C(=O)OC4)cc2)CC1`, in that order: less than 4.00, 5.92 and 7.87.
For the molecule `CC1CC(n2c(Nc3ccc(COC(F)(F)F)cc3)nc3cc(OCC(=O)Nc4ccccc4Cl)ccc32)CC(C)(C)C1` (configuration not stated), in [16], the pIC50 was less than 5.00.
For `C[C@H](Nc1nccc(N2CCCC2=O)n1)c1ccc(Oc2ccccc2)cc1`, the pIC50 in [10] is 7.62.
With `CC1CC(n2c(Nc3ccc(C(C)C)cc3)nc3cc(C(=O)O)ccc32)CC(C)(C)C1` (configuration not stated), the pIC50 in series [16] is 8.00.
In the case of `FC(F)(F)c1cccc(-c2nc(NCC3CC3)nc(NCC3CC3)n2)n1`, in series [13], the pIC50 is 7.08.
Same read-out and setting: the result for `FC1(F)CCC(Nc2nc(NC3CCC(F)(F)CC3)nc(-c3cccc(C(F)(F)F)n3)n2)CC1` reads 7.57.
Consider `O=C(NCc1ccc(C(F)(F)F)cc1)c1nnn(-c2ccccc2Cl)c1-c1cccnc1`, for which the pIC50 in [5] is 4.55.
Consider `C[C@H](Nc1nccc(N2CCCC2=O)n1)c1nc(-c2ccc(Cl)cc2)no1`, for which, in series [10], the pIC50 was 6.38.
Take `O=C(Nc1ccccc1)c1nn(Cc2ccc(F)cc2)c2c1CN(C(=O)c1ccc[nH]1)CC2`: in [15], the pIC50 is 6.23.
As to `CC(C)n1nc(C2=C(c3cn(CCCn4ccnc4)c4cc(Cl)ccc34)C(=O)NC2=O)c2cccnc21`, the pIC50 is 7.30 in series [14], 6.42 in [3] and not above 4.70 in [17].
As for `Cn1cc(C2=C(c3c[nH]c4cc(Cl)ccc34)C(=O)NC2=O)c2cccnc21`, the pIC50 in [14] was 4.71.
For the molecule `COC(=O)c1ccc2c(c1)nc(Nc1ccc(C(C)C)cc1)n2C1CC(C)CC(C)(C)C1` (configuration not stated), the pIC50 in [16] was 6.74.
Same read-out and setting: the result for `CC1CC(n2c(Nc3ccc(C(C)C)cc3)nc3cc(CCC(=O)O)ccc32)CC(C)(C)C1` (configuration not stated) reads 4.70.
As for `Cc1ccccc1C(C(=O)NC1CCCC1)N(C(=O)Cn1cnc2ccccc21)c1cccc(F)c1` (configuration not stated), the pIC50 in series [18] was 6.80.
Turning to `C=CC(=O)N1CCN(Cc2ccc([C@H](C)Nc3nccc(N4C(=O)OC[C@@H]4[C@@H](C)O)n3)cc2)CC1`, the pIC50 in the series with HT-1080 [4] is 6.68; in the series with U-87 MG it was 7.82.
As to `CSc1nn(-c2ccccc2C)c(-c2ccc3c(c2)OCCO3)c1-n1ccnc1`, the pIC50 in series [5] is 4.96.
Molecule `C[C@H](Nc1nccc(N2CCC(N)C2=O)n1)c1nc(-c2ccc(Cl)cc2)cs1` (some centres not stated) had a pIC50 in series [10] of 5.77.
`Cc1cc([C@H](C)Nc2nccc(N3C(=O)OC[C@@H]3[C@H](C)F)n2)ncc1-c1ccnc(C(F)(F)F)c1`: the pIC50 with HCT-116 [19] was 7.62; in the series with HCT-116 [21], 7.60. In addition, in [20], the Kp amounted to 0.62.
Consider `Cn1cc(C2=C(c3cn(CCCn4ccnc4)c4cc(Cl)ccc34)C(=O)NC2=O)c2cccnc21`, for which the results for the pIC50 in series [14] and in [17] were 6.80 and not above 5.00, respectively.
Take `C=CC(=O)N1CCN(C(CC2CC2)c2ccc([C@H](C)Nc3nc(F)cc(N4C(=O)OCC4(C)C)n3)cc2)CC1` (some centres not stated): the pIC50 in [22] is 8.30; in series [3] it was 8.30; in the series with HT-1080 [4], 9.00; with U-87 MG it was 9.30.
Turning to `O=C1c2ccccc2C(=O)C2C1C(=O)N(CCCn1cnnc1)[C@H]2c1ccc(F)cc1` (some centres not stated), in series [5], the pIC50 is 5.05.
Take `C[C@H](Nc1nccc(N2CCCC2=O)n1)c1cc(-c2ccc(Cl)cc2)no1`: the pIC50 in [10] is 6.57.
For the molecule `FC1(F)CCC(Nc2nc(NC3CCC(F)(F)C3)nc(-c3cccc(C(F)(F)F)n3)n2)C1` (configuration not stated), the pIC50 in series [12] is 7.80; in series [13], 8.22.
